Results as given in patent US6368621B1, “Preparation in particular for use as a medication and/or food supplement” (Peter Greither, priority 1999, dated 2002).

Experiment: Determining the Kpart value: distribution between n-octanol and aqueous tris hydrochloride
Format: physicochemical
Conditions: n-octanol / aqueous tris hydrochloride 20 mM, pH 7.4, 20° C.; for distribution coefficient Kpart, metal-free compound: spectrophotometry 220 to 340 nm; for distribution coefficient Kpart, iron complex [FeIII-(compound)3]: spectrophotometry 340 to 640 nm, 3:1 iron(III) complex of the compound
Description: A further factor which plays a role with the bio-availability of iron is the ability of the iron complexes to penetrate biological membranes. One of the possible indicators for this membrane permeation is Kpart. Kpart describes the ratio between the concentration of the compound in n-octanol to the concentration of the compound in the aqueous phase. Although the iron complex as well as its corresponding metal-free compound should be able to enter through the biomembrane, both should also have a certain degree of water solubility. In the course of the present invention the iron complexes preferably have Kpart values in a region between 0.02 and 6.0, preferred between 0.1 and 4.0 and even more preferred between 0.2 and 1.0. The metal-free complex preferably has Kpart values between 0.05 and 3.0, preferred between 0.1 and 2.0 and even more preferred between 0.2 and 1.0.
Determining the Kpart value:
Determined is the distribution in each case for the iron complex as well as for the corresponding metal-free compound between n-octanol and aqueous tris hydrochloride (20 mM, pH 7.4; tris: 2 amino-2-hydroxymethylpropane-1,3-diol). The concentration of the substances in the respective phase is measured at 20° C. by way of spectrophotometry. 5 ml of a 10^−4M aqueous solution of iron complex and metal-free compound are mixed with 5 ml of n-octanol for one minute. The aqueous n-octanol mixture arising with this is centrifuged at 1,000 G for 30 seconds. The two resulting phases are separated from one another for evaluating the concentration. The metal-free compound is measured in a region of 220 to 340 nanometers whilst for evaluating the concentration of the corresponding iron complex a region between 340 and 640 nanometers is selected. These regions also apply to the 3:1 maltol-iron(III)-complex.

| distribution coefficient Kpart, metal-free compound | distribution coefficient Kpart, iron complex [FeIII-(compound)3] | Compound |
| --- | --- | --- |
| 0.66 | 0.5 | Cc1occc(=O)c1O [3-hydroxy-2-methyl-4 pyrone] |
| 0.52 | 1.06 | CCn1cccc(O)c1=O [1-ethyl-3-hydroxypyri-2-one] |
| 0.44 | 0.10 | Cn1cccc(O)c1=O [3-hydroxy-1-methylpyride-2-one] |
